# Read-outs that look alike come from different tables or passages of the source. Residues, ends and D or L forms follow the SMILES beside them.
# How the values were obtained:
# [1] = test system: DP IV; assay: Determination of the half-life (t1/2) of DP IV-catalyzed peptide truncation by MALDI-TOF MS; settings: truncation by DP IV
# Protocol: (§1) The degradation fate of peptides was measured by monitoring the signal intensity of the pseudomolecular ion peaks of parent peptides and N-terminal shorted peptides versus time when incubated with 40 mU procine DP IV, recombinant human DP IV or serum DP IV activity. […] As control served the preincubation of DP IV with 0.01M Tris-buffer (Sigma-Aldrich, Deisenhofen, Germany). The mass spectrometer employed was a Hewlett-Packard G2025 model with a linear time of flight analyzer; samples (4 μL) were mixed 1:1 v/v with matrix (44 mg diammonium-hydrogen-citrate and 30 mg 2′,6′-dihydroxyacetophenone in 1 ml aqueous solution containing 50% acetonitrile and 0.05% trifluoroacetic acid; Sigma-Aldrich), transferred to a probe tip and immediately evaporated using the Hewlett-Packard G2024A (Hewlett-Packard, Waldbronn, Germany) sample preparation vacuum chamber. 250 single laser-shot spectra were accumulated. This method of monitoring biodegradation has been validated and allows the general comparison of half-degradation times (t1/2) under various conditions.
# (§2) The t1/2-calculation followed this procedure:
# (§3) The height of the substrate peak was measured and set as 100% at time=0. During the reaction course the sum of substrate and product peak height were set as 100% and the percentage of the remaining substrate peak (also expressed as relative concentration) was determined. Diagrammed relative substrate concentration versus time t1/2 can be calculated based on first order exponential decay reaction course. [formula]
# [2] = as above
# Protocol: as §1, §2, §3
# [3] = molecular target: T1, rec. human DP IV (Homo sapiens, UniProt P27487); assay: MALDI-TOF approach: Ki of TFTSDY on DP IV-catalyzed peptide truncation; type: biochemical; settings: K1, inhibitory effect on DP IV-catalyzed peptide truncation
# T1 construct: His6 (N); made in house; host or cells: Pichia pastoris X-33 (vector pPICαC, secreted into the medium)
# Protocol: (§4) 250 single laser-shot spectra were accumulated.
# (§5) In order to investigate directly the influence of TFTSDY on the DP IV-catalyzed peptide hydrolysis the MALDI-TOF assay was used.
# (§6) As described before (determination of t1/2) DP IV and TFTSDY were preincubated and the reaction was started by adding the enzyme/hexapeptide mixture to substrate/buffer mix. The control reaction mixture consisted of buffer, enzyme and substrate. From the curves of the first order exponential the initial rate (v1) for the control and the reversible inhibited reaction was calculated.
# (§7) For the uninfluenced reaction the Michaelis-Menten-equation was used.
# (§8) Vi was calculated from plotting the relative substrate concentration versus time.
# (§9) Km is given, also the substrate concentration. [formula]
# (§10) For the reversible inhibited reaction the following reaction was used to calculate Kl: [formula]
# [4] = molecular target: T2, porcine DP IV (Sus scrofa, UniProt P22411); assay: as above; type: biochemical; settings: K1, inhibitory effect on DP IV-catalyzed peptide truncation
# T2 construct: purified DP IV from human, from porcine kidney, of recombinant human DP IV; from tissue; host or cells: porcine kidney
# Protocol: as §4, §5, §6, §7, §8, §9, §10
# [5] = test system: DP IV; assay: Peptide truncation by DP IV after preincubation with TFTSDY (MALDI-TOF); type: biochemical
# Protocol: as §4, §5, §6
# [6] = molecular target: T3, mu 16: recombinant human DP IV, mutation W629A (Homo sapiens, UniProt P27487, W629A); assay: Determination of Ki in competition to standard substrate GP-4NA; type: biochemical; settings: mu 16 DP IV, competition to GP-4NA
# T3 construct: His6 (N); made in house; host or cells: Pichia pastoris X-33 (vector pPICαC, secreted into the medium)
# Protocol: (§11) In order to measure the inhibition constant Ki a photometric assay was used The peptides were measured as competitors of the standard substrate GP-4-Nitroanilide. Three different substrate concentrations (0.4 mM to 0.05 mM) were combined with 8 different competitor concentrations (0.5 mM to 2 μM). […] Experiments were carried out under standard conditions: 30° C. in pH 7.6 40 mM HEPES (Sigma-Aldrich) buffer. Nitroaniline production was monitored using a HTS 7000+ microplate reader (PerkinElmer, Überlingen, Germany).
# (§12) For a reversible competitive inhibition is to assumed: [formula]
# [7] = molecular target: T4, mu 15: recombinant human DP IV, mutation R560A (Homo sapiens, UniProt P27487, R560A); assay: as above; type: biochemical; settings: mu 15 DP IV, competition to GP-4NA
# T4 construct: His6 (N); made in house; host or cells: Pichia pastoris X-33 (vector pPICαC, secreted into the medium)
# Protocol: as §11, §12
# [8] = molecular target: T5, rh wt: recombinant human DP IV, wild type (Homo sapiens, UniProt P27487); assay: as above; type: biochemical; settings: competition to GP-4NA
# T5 construct: His6 (N); made in house; host or cells: Pichia pastoris X-33 (vector pPICαC, secreted into the medium)
# Protocol: as §11, §12
# T2 sequence (P22411 whole entry, the tested form may be a part): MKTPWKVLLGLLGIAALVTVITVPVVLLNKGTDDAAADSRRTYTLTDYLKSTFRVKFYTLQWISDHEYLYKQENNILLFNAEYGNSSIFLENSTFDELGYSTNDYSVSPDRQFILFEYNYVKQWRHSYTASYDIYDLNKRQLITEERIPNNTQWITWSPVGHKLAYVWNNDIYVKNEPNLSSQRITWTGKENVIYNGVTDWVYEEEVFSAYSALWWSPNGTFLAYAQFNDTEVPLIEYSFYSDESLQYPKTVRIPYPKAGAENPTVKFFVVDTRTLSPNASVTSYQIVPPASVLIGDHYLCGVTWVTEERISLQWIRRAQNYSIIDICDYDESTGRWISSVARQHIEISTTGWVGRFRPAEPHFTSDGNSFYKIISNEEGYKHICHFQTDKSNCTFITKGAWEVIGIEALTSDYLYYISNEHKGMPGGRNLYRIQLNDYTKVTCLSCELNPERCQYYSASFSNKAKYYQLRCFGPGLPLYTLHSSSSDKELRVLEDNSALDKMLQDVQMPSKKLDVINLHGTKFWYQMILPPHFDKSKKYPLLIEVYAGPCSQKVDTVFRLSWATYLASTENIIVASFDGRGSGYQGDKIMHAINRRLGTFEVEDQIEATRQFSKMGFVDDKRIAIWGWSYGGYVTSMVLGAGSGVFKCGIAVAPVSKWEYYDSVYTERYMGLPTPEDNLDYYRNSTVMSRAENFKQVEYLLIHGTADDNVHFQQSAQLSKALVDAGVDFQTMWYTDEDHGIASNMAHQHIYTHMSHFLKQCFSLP
# T1 sequence (P27487 37-766): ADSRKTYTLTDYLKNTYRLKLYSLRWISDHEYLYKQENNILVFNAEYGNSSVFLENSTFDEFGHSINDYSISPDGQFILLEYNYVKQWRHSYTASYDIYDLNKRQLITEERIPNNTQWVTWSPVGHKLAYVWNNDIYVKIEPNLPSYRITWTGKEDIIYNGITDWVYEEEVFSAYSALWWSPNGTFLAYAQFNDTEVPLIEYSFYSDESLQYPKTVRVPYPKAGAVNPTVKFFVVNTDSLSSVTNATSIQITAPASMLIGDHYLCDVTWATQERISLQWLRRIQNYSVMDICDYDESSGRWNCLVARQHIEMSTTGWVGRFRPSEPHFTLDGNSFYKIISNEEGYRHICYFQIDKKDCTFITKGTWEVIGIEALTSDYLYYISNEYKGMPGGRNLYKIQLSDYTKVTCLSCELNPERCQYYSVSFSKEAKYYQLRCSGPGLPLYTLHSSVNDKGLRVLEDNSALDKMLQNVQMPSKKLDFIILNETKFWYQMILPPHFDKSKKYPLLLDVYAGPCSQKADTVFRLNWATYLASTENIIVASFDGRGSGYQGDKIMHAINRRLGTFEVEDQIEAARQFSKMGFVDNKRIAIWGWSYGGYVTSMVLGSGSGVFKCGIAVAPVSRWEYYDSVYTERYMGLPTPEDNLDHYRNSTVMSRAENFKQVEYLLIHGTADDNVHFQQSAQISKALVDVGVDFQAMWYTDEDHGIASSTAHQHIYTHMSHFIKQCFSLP
# T3 sequence (P27487 37-766 W629A): as the sequence (P27487 37-766) above, with W593A counted along it
# T4 sequence (P27487 37-766 R560A): as the sequence (P27487 37-766) above, with R524A counted along it
# T5 sequence (P27487 37-766): as the sequence (P27487 37-766) above
molecule,measurement,setting,value
C[C@@H](O)[C@H](NC(=O)CNC(=O)[C@H](CCC(=O)O)NC(=O)CNC(=O)[C@@H](N)Cc1ccc(O)cc1)C(=O)N[C@@H](Cc1ccccc1)C(=O)O [G^2GIP1-6] (H-YGEGTF-OH),half-life,[1],no degradation
CC[C@H](C)[C@H](NC(=O)[C@H](CO)NC(=O)[C@H](Cc1ccc(O)cc1)NC(=O)[C@H](CC(=O)O)NC(=O)[C@H](CO)NC(=O)[C@@H](NC(=O)[C@H](Cc1ccccc1)NC(=O)[C@@H](NC(=O)CNC(=O)[C@H](CCC(=O)O)NC(=O)CNC(=O)[C@@H](N)Cc1ccc(O)cc1)[C@@H](C)O)[C@@H](C)CC)C(=O)N[C@@H](C)C(=O)N[C@@H](CCSC)C(=O)N[C@@H](CC(=O)O)C(=O)N[C@@H](CCCCN)C(=O)N[C@H](C(=O)N[C@@H](Cc1c[nH]cn1)C(=O)N[C@@H](CCC(N)=O)C(=O)N[C@@H](CCC(N)=O)C(=O)N[C@@H](CC(=O)O)C(=O)N[C@@H](Cc1ccccc1)C(=O)N[C@H](C(=O)N[C@@H](CC(N)=O)C(=O)N[C@@H](Cc1c[nH]c2ccccc12)C(=O)N[C@@H](CC(C)C)C(=O)N[C@@H](CC(C)C)C(=O)N[C@@H](C)C(=O)N[C@@H](CCC(N)=O)C(=O)N[C@@H](CCCCN)C(=O)O)C(C)C)[C@@H](C)CC [G^2GIP1-30],half-life,[2],2.5 h
CC[C@H](C)[C@H](NC(=O)[C@H](CO)NC(=O)[C@H](Cc1ccc(O)cc1)NC(=O)[C@H](CC(=O)O)NC(=O)[C@H](CO)NC(=O)[C@@H](NC(=O)[C@H](Cc1ccccc1)NC(=O)[C@@H](NC(=O)CNC(=O)[C@H](CCC(=O)O)NC(=O)[C@H](CO)NC(=O)[C@@H](N)Cc1ccc(O)cc1)[C@@H](C)O)[C@@H](C)CC)C(=O)N[C@@H](C)C(=O)N[C@@H](CCSC)C(=O)N[C@@H](CC(=O)O)C(=O)N[C@@H](CCCCN)C(=O)N[C@H](C(=O)N[C@@H](Cc1c[nH]cn1)C(=O)N[C@@H](CCC(N)=O)C(=O)N[C@@H](CCC(N)=O)C(=O)N[C@@H](CC(=O)O)C(=O)N[C@@H](Cc1ccccc1)C(=O)N[C@H](C(=O)N[C@@H](CC(N)=O)C(=O)N[C@@H](Cc1c[nH]c2ccccc12)C(=O)N[C@@H](CC(C)C)C(=O)N[C@@H](CC(C)C)C(=O)N[C@@H](C)C(=O)N[C@@H](CCC(N)=O)C(=O)N[C@@H](CCCCN)C(=O)O)C(C)C)[C@@H](C)CC [S^2GIP1-30],half-life,[2],2.29 h
C[C@@H](O)[C@H](N)C(=O)N[C@@H](Cc1ccccc1)C(=O)N[C@H](C(=O)N[C@@H](CO)C(=O)N[C@@H](CC(=O)O)C(=O)N[C@@H](Cc1ccc(O)cc1)C(=O)O)[C@@H](C)O [TFTSDY] (H-TFTSDY-OH; N-terminus and C-terminus assumed),Ki,[3]; substrate GIP,14 µM
same,Ki,[3]; substrate PACAP-27,26.7 µM
same,Ki,[3]; substrate PACAP-38,2.8 µM
same,Ki,[3]; substrate glucagon,3.7 µM
same,Ki,[4]; substrate GIP,65.9 µM
same,Ki,[4]; substrate GLP-1,13.7 µM
same,Ki,[4]; substrate NPY,17.2 µM
same,Ki,[4]; substrate RANTES1-15,≥ 12300 µM
same,Ki,[4]; substrate glucagon,6.8 µM
same,"influence on affinity of oligopeptides such as GIP, VIP, glucagon",[5]; DP IV preincubated with TFTSDY,considerably reduced
same,influence on binding and hydrolysis of small dipeptide substrates,[5]; DP IV preincubated with TFTSDY,only slightly influenced
same,effect on truncation of substrate by DP IV,"[5]; substrate Rantes1-15, 160 μM TFTSDY",No differences
CC(C)[C@H](NC(=O)[C@@H](N)Cc1ccc(O)cc1)C(=O)N[C@@H](CCC(=O)O)C(=O)NCC(=O)N[C@H](C(=O)N[C@@H](Cc1ccccc1)C(=O)O)[C@@H](C)O [V^2GIP1-6] (H-YVEGTF-OH),half-life,[1],no degradation
CC[C@H](C)[C@H](NC(=O)[C@H](CO)NC(=O)[C@H](Cc1ccc(O)cc1)NC(=O)[C@H](CC(=O)O)NC(=O)[C@H](CO)NC(=O)[C@@H](NC(=O)[C@H](Cc1ccccc1)NC(=O)[C@@H](NC(=O)CNC(=O)[C@H](CCC(=O)O)NC(=O)[C@@H](NC(=O)[C@@H](N)Cc1ccc(O)cc1)C(C)C)[C@@H](C)O)[C@@H](C)CC)C(=O)N[C@@H](C)C(=O)N[C@@H](CCSC)C(=O)N[C@@H](CC(=O)O)C(=O)N[C@@H](CCCCN)C(=O)N[C@H](C(=O)N[C@@H](Cc1c[nH]cn1)C(=O)N[C@@H](CCC(N)=O)C(=O)N[C@@H](CCC(N)=O)C(=O)N[C@@H](CC(=O)O)C(=O)N[C@@H](Cc1ccccc1)C(=O)N[C@H](C(=O)N[C@@H](CC(N)=O)C(=O)N[C@@H](Cc1c[nH]c2ccccc12)C(=O)N[C@@H](CC(C)C)C(=O)N[C@@H](CC(C)C)C(=O)N[C@@H](C)C(=O)N[C@@H](CCC(N)=O)C(=O)N[C@@H](CCCCN)C(=O)O)C(C)C)[C@@H](C)CC [V^2GIP1-30],half-life,[2],4.97 h
C[C@H](NC(=O)[C@@H](N)Cc1ccc(O)cc1)C(=O)N[C@@H](CCC(=O)O)C(=O)N[C@@H](CO)C(=O)N[C@H](C(=O)N[C@@H](Cc1ccccc1)C(N)=O)[C@@H](C)O [YAESTF amide] (H-YAESTF-NH2; N-terminus assumed),Ki,[6]; read-out: Ki,1.06 µM
same,Ki,[7]; read-out: Ki,1.14 µM
"Glucagon (1-14): glucagon fragment 1-14 (HSQGTFTSDYSKYL; Glucagon; UniProt P01275 53-66, looked up, fragment) [reference compound]",Ki,[8],no inhibition
same,Ki,[6],no inhibition
same,Ki,[7],no inhibition
